Here are results for 24 compounds from patent publication US11173162B2, “Bicyclic heterocycles as FGFR4 inhibitors” (Incyte Corporation, priority 2015, dated 2021).

Structures are written as SMILES.

This experiment relates to FGFR3 enzyme. Briefly: FGFR Enzymatic Assay (FRET peptide phosphorylation), FGFR3. Type of experiment: biochemical. To be noted: IC50 ratio showing FGFR3 selectivity; Table 2A, pre-incubated for 4 hours. How it is done: The inhibitor potency of the exemplified compounds was measured in an enzyme assay that measures peptide phosphorylation using FRET measurements to detect product formation. Inhibitors were serially diluted in DMSO and a volume of 0.5 μL was transferred to the wells of a 384-well plate.
GraphPad prism3 was used to analyze the data.

`COc1cc(OC)c(F)c(N2Cc3cnc(-c4cn(C)nc4C)cc3N(Cc3ccnc(C)c3)C2=O)c1F` [Example 68, 3-(2,6-difluoro-3,5-dimethoxyphenyl)-7-(1,3-dimethyl-1H-pyrazol-4-yl)-1-((2-methylpyridin-4-yl)methyl)-3,4-dihydropyrido[4,3-d]pyrimidin-2(1H)-one]: the FGFR1/FGFR3 is given as more than 5 and the FGFR4/FGFR3 is listed as more than 5.

In the case of `COc1cc(OC)c(F)c(N2Cc3cnc(-c4cn(C)nc4C)cc3N(Cc3ccncc3)C2=O)c1F` [Example 69, 3-(2,6-difluoro-3,5-dimethoxyphenyl)-7-(1,3-dimethyl-1H-pyrazol-4-yl)-1-(pyridin-4-ylmethyl)-3,4-dihydropyrido[4,3-d]pyrimidin-2(1H)-one], the FGFR1/FGFR3 is more than 5 and the FGFR4/FGFR3 was more than 5.

As for `COc1cc(OC)c(F)c(N2Cc3cnc(-c4cn(C)nc4C)cc3N(c3cnccn3)C2=O)c1F` [Example 70, 3-(2,6-difluoro-3,5-dimethoxyphenyl)-7-(1,3-dimethyl-1H-pyrazol-4-yl)-1-(pyrazin-2-yl)-3,4-dihydropyrido[4,3-d]pyrimidin-2(1H)-one], the FGFR1/FGFR3 was more than 5 and the FGFR4/FGFR3 is recorded as more than 5.

In the case of `COc1cc(OC)c(F)c(N2Cc3cnc(-c4cn(C)nc4C)cc3N(C3CCN(S(C)(=O)=O)CC3)C2=O)c1F` [Example 71, 3-(2,6-difluoro-3,5-dimethoxyphenyl)-7-(1,3-dimethyl-1H-pyrazol-4-yl)-1-(1-(methylsulfonyl)piperidin-4-yl)-3,4-dihydropyrido[4,3-d]pyrimidin-2(1H)-one], the FGFR1/FGFR3 is listed as more than 5 and the FGFR4/FGFR3 was more than 3.

With `COc1cc(OC)c(F)c(N2Cc3cnc(-c4cn(C)nc4C)cc3N(Cc3cnn(C)c3)C2=O)c1F` [Example 72, 3-(2,6-difluoro-3,5-dimethoxyphenyl)-7-(1,3-dimethyl-1H-pyrazol-4-yl)-1-((1-methyl-1H-pyrazol-4-yl)methyl)-3,4-dihydropyrido[4,3-d]pyrimidin-2(1H)-one], the FGFR1/FGFR3 was more than 5 and the FGFR4/FGFR3 is more than 10.

For `COc1cc(OC)c(F)c(N2Cc3cnc(-c4cn(C)nc4C)cc3N(Cc3ccc(F)c(F)c3)C2=O)c1F` [Example 73, 3-(2,6-difluoro-3,5-dimethoxyphenyl)-1-(3,4-difluorobenzyl)-7-(1,3-dimethyl-1H-pyrazol-4-yl)-3,4-dihydropyrido[4,3-d]pyrimidin-2(1H)-one], the FGFR1/FGFR3 is recorded as more than 5 and the FGFR4/FGFR3 was more than 10.

As for `COc1cc(OC)c(F)c(N2Cc3cnc(-c4cn(C)nc4C)cc3N(Cc3ccc(C#N)nc3)C2=O)c1F` [Example 74, 5-((3-(2,6-difluoro-3,5-dimethoxyphenyl)-7-(1,3-dimethyl-1H-pyrazol-4-yl)-2-oxo-3,4-dihydropyrido[4,3-d]pyrimidin-1(2H)-yl)methyl)picolinonitrile], the FGFR1/FGFR3 was more than 5 and the FGFR4/FGFR3 is more than 5.

`COc1cc(OC)c(F)c(N2Cc3cnc(-c4cn(C)nc4C)cc3N(c3ccc4nc(C)oc4c3)C2=O)c1F` [Example 75, 3-(2,6-difluoro-3,5-dimethoxyphenyl)-7-(1,3-dimethyl-1H-pyrazol-4-yl)-1-(2-methylbenzo[d]oxazol-6-yl)-3,4-dihydropyrido[4,3-d]pyrimidin-2(1H)-one]: the FGFR1/FGFR3 was more than 5 and the FGFR4/FGFR3 was more than 3.

For `COc1cc(OC)c(F)c(N2Cc3cnc(-c4cn(C)nc4C)cc3N(c3ccc(-n4cccn4)cc3)C2=O)c1F` [Example 77, 1-(4-(1H-pyrazol-1-yl)phenyl)-3-(2,6-difluoro-3,5-dimethoxyphenyl)-7-(1,3-dimethyl-1H-pyrazol-4-yl)-3,4-dihydropyrido[4,3-d]pyrimidin-2(1H)-one], the FGFR1/FGFR3 is listed as more than 5 and the FGFR4/FGFR3 was more than 10.

Consider `COc1cc(OC)c(F)c(N2Cc3cnc(-c4cn(C)nc4C)cc3N(c3cc(F)cc(C#N)c3)C2=O)c1F` [Example 78, 3-(3-(2,6-difluoro-3,5-dimethoxyphenyl)-7-(1,3-dimethyl-1H-pyrazol-4-yl)-2-oxo-3,4-dihydropyrido[4,3-d]pyrimidin-1(2H)-yl)-5-fluorobenzonitrile], for which the FGFR1/FGFR3 is more than 5 and the FGFR4/FGFR3 is more than 3.

With `COc1cc(OC)c(F)c(N2Cc3cnc(-c4cn(C)nc4C)cc3N(c3ccc(C#N)cn3)C2=O)c1F` [Example 79, 6-(3-(2,6-difluoro-3,5-dimethoxyphenyl)-7-(1,3-dimethyl-1H-pyrazol-4-yl)-2-oxo-3,4-dihydropyrido[4,3-d]pyrimidin-1(2H)-yl)nicotinonitrile], the FGFR1/FGFR3 is more than 5 and the FGFR4/FGFR3 is given as more than 3.

Take `COc1cc(N2C(=O)N(c3c(F)c(OC)cc(OC)c3F)Cc3cnc(-c4cn(C)nc4C)cc32)ccc1C#N` [Example 81, 4-(3-(2,6-difluoro-3,5-dimethoxyphenyl)-7-(1,3-dimethyl-1H-pyrazol-4-yl)-2-oxo-3,4-dihydropyrido[4,3-d]pyrimidin-1(2H)-yl)-2-methoxybenzonitrile]: the FGFR1/FGFR3 was more than 5 and the FGFR4/FGFR3 was more than 10.

Turning to `COc1cc(OC)c(F)c(N2Cc3cnc(-c4cn(C)nc4C)cc3N(C3CC3)C2=O)c1F` [Example 83, 1-cyclopropyl-3-(2,6-difluoro-3,5-dimethoxyphenyl)-7-(1,3-dimethyl-1H-pyrazol-4-yl)-3,4-dihydropyrido[4,3-d]pyrimidin-2(1H)-one], the FGFR1/FGFR3 is more than 5 and the FGFR4/FGFR3 is reported as more than 5.

For the compound `COc1cc(OC)c(F)c(N2Cc3cnc(-c4cn(C)nc4C)cc3N(Cc3cncnc3)C2=O)c1F` [Example 84, 3-(2,6-difluoro-3,5-dimethoxyphenyl)-7-(1,3-dimethyl-1H-pyrazol-4-yl)-1-(pyrimidin-5-ylmethyl)-3,4-dihydropyrido[4,3-d]pyrimidin-2(1H)-one], the FGFR1/FGFR3 is reported as more than 5 and the FGFR4/FGFR3 is listed as more than 5.

Take `COc1cc(OC)c(F)c(N2Cc3cnc(-c4cn(C)nc4C)cc3N(Cc3cnccn3)C2=O)c1F` [Example 85, 3-(2,6-difluoro-3,5-dimethoxyphenyl)-7-(1,3-dimethyl-1H-pyrazol-4-yl)-1-(pyrazin-2-ylmethyl)-3,4-dihydropyrido[4,3-d]pyrimidin-2(1H)-one]: the FGFR1/FGFR3 is listed as more than 5 and the FGFR4/FGFR3 is given as more than 10.

Regarding `COc1cc(OC)c(F)c(N2Cc3cnc(-c4cn(C)nc4C)cc3N(c3cccnc3)C2=O)c1F` [Example 86, 3-(2,6-difluoro-3,5-dimethoxyphenyl)-7-(1,3-dimethyl-1H-pyrazol-4-yl)-1-(pyridin-3-yl)-3,4-dihydropyrido[4,3-d]pyrimidin-2(1H)-one], the FGFR1/FGFR3 is recorded as more than 5 and the FGFR4/FGFR3 was more than 10.

For `COc1cc(OC)c(F)c(N2Cc3cnc(-c4cn(C)nc4C)cc3N(c3cncc(C)n3)C2=O)c1F` [Example 87, 3-(2,6-difluoro-3,5-dimethoxyphenyl)-7-(1,3-dimethyl-1H-pyrazol-4-yl)-1-(6-methylpyrazin-2-yl)-3,4-dihydropyrido[4,3-d]pyrimidin-2(1H)-one], the FGFR1/FGFR3 was more than 5 and the FGFR4/FGFR3 was more than 10.

With `COc1cc(OC)c(F)c(N2Cc3cnc(-c4cn(C)nc4C)cc3N(Cc3cccnn3)C2=O)c1F` [Example 88, 3-(2,6-difluoro-3,5-dimethoxyphenyl)-7-(1,3-dimethyl-1H-pyrazol-4-yl)-1-(pyridazin-3-ylmethyl)-3,4-dihydropyrido[4,3-d]pyrimidin-2(1H)-one], the FGFR1/FGFR3 is more than 5 and the FGFR4/FGFR3 is given as more than 10.

`COc1cc(OC)c(F)c(N2Cc3cnc(-c4cn(C)nc4C)cc3N(c3cccc(-c4cnnn4C)c3)C2=O)c1F` [Example 89, 3-(2,6-difluoro-3,5-dimethoxyphenyl)-7-(1,3-dimethyl-1H-pyrazol-4-yl)-1-(3-(1-methyl-1H-1,2,3-triazol-5-yl)phenyl)-3,4-dihydropyrido[4,3-d]pyrimidin-2(1H)-one]: the FGFR1/FGFR3 was more than 5 and the FGFR4/FGFR3 is reported as more than 10.

`COc1cc(OC)c(F)c(N2Cc3cnc(-c4cn(C)nc4C)cc3N(C(C)C)C2=O)c1F` [Example 90, 3-(2,6-difluoro-3,5-dimethoxyphenyl)-7-(1,3-dimethyl-1H-pyrazol-4-yl)-1-isopropyl-3,4-dihydropyrido[4,3-d]pyrimidin-2(1H)-one]: the FGFR1/FGFR3 is given as more than 5 and the FGFR4/FGFR3 is given as more than 5.

Take `COc1cc(OC)c(F)c(N2Cc3cnc(-c4cn(C)nc4C)cc3N(C3(C#N)CC3)C2=O)c1F` [Example 91, 1-(3-(2,6-difluoro-3,5-dimethoxyphenyl)-7-(1,3-dimethyl-1H-pyrazol-4-yl)-2-oxo-3,4-dihydropyrido[4,3-d]pyrimidin-1(2H)-yl)cyclopropanecarbonitrile]: the FGFR1/FGFR3 is more than 5 and the FGFR4/FGFR3 is on record as more than 5.

For the compound `COc1cc(OC)c(F)c(N2Cc3cnc(-c4cn(C)nc4C)cc3N(Cc3cc(C(C)C)on3)C2=O)c1F` [Example 93, 3-(2,6-difluoro-3,5-dimethoxyphenyl)-7-(1,3-dimethyl-1H-pyrazol-4-yl)-1-((5-isopropylisoxazol-3-yl)methyl)-3,4-dihydropyrido[4,3-d]pyrimidin-2(1H)-one], the FGFR1/FGFR3 is more than 5 and the FGFR4/FGFR3 is listed as more than 5.

Turning to `COc1cc(OC)c(F)c(N2Cc3cnc(-c4cn(C)nc4C)cc3N(Cc3ccccn3)C2=O)c1F` [Example 94, 3-(2,6-difluoro-3,5-dimethoxyphenyl)-7-(1,3-dimethyl-1H-pyrazol-4-yl)-1-(pyridin-2-ylmethyl)-3,4-dihydropyrido[4,3-d]pyrimidin-2(1H)-one], the FGFR1/FGFR3 is more than 5 and the FGFR4/FGFR3 is recorded as more than 10.

On to `COc1cc(OC)c(F)c(N2Cc3cnc(-c4cn(C)nc4C)cc3N(Cc3csc(C)n3)C2=O)c1F` [Example 95, 3-(2,6-difluoro-3,5-dimethoxyphenyl)-7-(1,3-dimethyl-1H-pyrazol-4-yl)-1-((2-methylthiazol-4-yl)methyl)-3,4-dihydropyrido[4,3-d]pyrimidin-2(1H)-one], for which the FGFR1/FGFR3 is reported as more than 5 and the FGFR4/FGFR3 is more than 10.
